Measurements from patent US11590117B2, “Treatment of a hematologic malignancy with 2-(4-chlorophenyl)-n-((2-(2,6-dioxopiperidin-3-yl)-1-oxoisoindolin-5-yl)methyl)-2,2-difluoroacetamide” (priority 2016, dated 2023).

How the values were obtained:
[1] = system: HR-MDS, sAML and normal bone marrow progenitors; test: SL/M2 stromal co-culture colony replating assay (cell self-renewal assay); assay type: cell-based, human; conditions: 1 nM and 10 nM; sAML and HR-MDS progenitors more than normal bone marrow progenitors
Procedure: Compound 1 at the indicated concentrations was added at the initiation of co-culture, with DMSO as a vehicle control. Colonies were scored to determine the effect of Compound 1 on cell survival (FIG. 36A) and self-renewal (FIG. 36B). ***, p<0.001, AML vs normal bone marrow controls treated with 1 nM of compound 1 (one-way ANOVA). **, p=0.01, AML vs normal bone marrow controls treated with 10 nM of Compound 1 (one-way ANOVA). Error bars represent mean values SD.
Methods. Mouse stromal cells SL/M2 stably expressing human interleukin-3 (IL-3), granulocyte colony stimulating factor (G-CSF) and stem cell factor (SCF) were cultured to confluency, followed by gamma-irradiation. Human CD34+ bone marrow cells isolated from 3 high-risk MDS patients (HR-MDS), 3 secondary AML patients arising from MDS (sAML) and 5 age-matched healthy donors were then cultured with inactivated SL/M2 cells for a week. Next, human progenitor cells were quantified by FACS and cells were plated in methylcellulose for colony forming assay (cell survival assay). After two weeks, 20-25 colonies were picked from each condition, resuspended and replated in fresh methylcellulose for 2nd round of colony forming assay (cell self-renewal assay).

THLE-2 = test: CellTiter-Glo (CTG) cell proliferation assay, 72 hours, counter-screen; assay type: cell-based, human
Procedure: Preparation of Solutions of Test Article: Compounds were plated into black 384-well plates (Corning Inc.) to a final DMSO volume of 0.1% assuming a maximal volume of 50 μL. A 10-point dose response starting at 10 μM with a 1:3 dilution was printed in duplicate by acoustic dispense using the EDC ATS-100 platform.
Cell Proliferation Assays: The effect of Compound 1 on the proliferation/viability of the hematological cell lines (Table 1 Table, Table 2 and Table 3), THLE-2, or PBMCs was assessed after 72 hours incubation using CTG (Promega), according to manufacturer's instructions. Hematological cell lines were dispensed into compound plates by a Multidrop™ Combi Reagent Dispenser (Thermo Scientific, Waltham, Mass.) at a concentration of 0.1 to 0.3×10^6 cells per mL in a 50 μL total volume. THLE-2 cells were seeded out at 1000 cells per well in 50 μL volume and incubated for 72 hours. At 72 hours, 25 μL per well of CTG was dispensed by a Multidrop™ Combi Reagent Dispenser and adenosine triphosphate (ATP) release by viable cells was measured as relative luminescence units after 30 minutes using the Envision platform.
In order to calculate the therapeutic window for Compound 1, the compound was counter-screened against the immortalized (but non-tumorigenic) human hepatocyte-derived cell line THLE-2 (Pfeifer, et al, Proc Natl Acad Sci USA 1993 90(11):5123-5127) and against primary human PBMCs. […] The Compound 1 therapeutic window for the 10 sensitive AML cell lines as compared to THLE-2 cells ranged from 4.1 (KG-1a) to 57 (HNT-34) (method 1) or from 5.7 (KG-1a) to 79.5 (HNT-34) (method 2); the Compound 1 therapeutic window as compared to PBMCs ranged from 2.6 (KG-1a) to 36 (HNT-34)), or from 1.5 (KG-1a) to 21 (HNT-34) (Table 6).
Cultures of 11 different AML cell lines were incubated 72 hours with Compound 1 at concentrations of 0.5 nM to 10 μM. Proliferation was assessed using the CellTitre-Glo® assay. Results for cultures incubated with Compound 1 were normalized to results for control cultures for each cell line. […]

HL-60 human AML cells = test: HL-60 IV AML xenograft model, bone marrow histology; assay type: in vivo, SCID mice
Procedure: In this study, different Compound 1 dosing schedules (5 mg/kg, BID×5 consecutive days versus 2.5 mg/kg, BID×10 consecutive days) were studied while maintaining the total amount of drug administered constant. Vehicle control animals were treated with 5% N-methyl-2-pyrrolidone (NMP)/45% PEG 400/50% saline. Treatment was initiated 6 weeks post inoculation. Vehicle and Compound 1 treatment groups were terminated either on Day 7 (following 5 consecutive days of 5 mg/kg twice a day [BID] Compound 1) or on Day 11 (following 10 consecutive days of 2.5 mg/kg BID Compound 1) post treatment initiation. The primary endpoint for the study was percentage of hCD33+/CD45+ cells in the BM by FACS analysis. Additional endpoints included cell viability, body weight, and BM histology.
The alternate femur of vehicle and Compound 1-treated animals was fixed in formalin, embedded in paraffin and processed for hematoxylin and eosin staining. A single tissue section/animal was used for histological analysis and the percent of tumor in viable bone marrow was estimated based on the area occupied by tumor cells. There was a significant 35% reduction (p<0.006 relative to the vehicle control) in the percentage of viable tumor in the bone marrow with Compound 1 (5 mg/kg) BID×5 treatment. […]

[2] = system: Bone marrow mononuclear cells (BMMCs) from high risk MDS patients; test: MDS liquid culture, viable cell counting; assay type: cell-based, human; conditions: 24 hours exposure, 37, 111, 333 and 1000 nM, dose dependent, maintained at least a week
Procedure: Methods. The effect of Compound 1 on high risk MDS samples was measured in an in vitro liquid culture as well as by colony assays in order to better define its effect on stem/progenitor cells. Bone marrow mononuclear cells (BMMCs) from high risk MDS patients were cultured in vitro in CellGro medium (GellGenix) supplemented with hLDL (40 μg/mL), SCF (50 ng/mL), FLT3 […] (50 ng/mL), IL-3 (10 ng/mL), IL-6 (25 ng/mL) and TPO (100 ng/mL), all from Peprotech. During culture, cells were exposed to different concentrations of Compound 1 (37, 111, 333 and 1000 nM) or DMSO control. After 24 hours, cells were washed twice to remove compound and maintained in culture up to one week, performing viable cell counting on days 1, 3 and 7. Just after compound washout, […] per condition were collected for colony forming assays and another […] were stained for intracellular flow cytometry.

[3] = THLE-2 normal cells, 0.1 nM to 100 μM

O=C1CCC(N2Cc3cc(CNC(=O)C(F)(F)c4ccc(Cl)cc4)ccc3C2=O)C(=O)N1 (stereo not shown) [Compound 1, 2-(4-chlorophenyl)-N-((2-(2,6-dioxopiperidin-3-yl)-1-oxoisoindolin-5-yl)methyl)-2,2-difluoroacetamide]
colony replating (self-renewal) [1]: significantly reduced the self-renewal
IC50 (THLE-2; Homo sapiens, THLE-2, 72 h, THLE-2 non-tumorigenic human hepatocyte-derived cell line, 72 hours, read-out: antiproliferative IC50): 10 µM
AUC Method 1 (THLE-2; [3]): 393.0 arbitrary units
AUC Method 2 (THLE-2; [3]): 549.1 arbitrary units
reduction in percentage of viable tumor in the bone marrow (histology) (HL-60 human AML cells; 2.5 mg/kg BID×10, relative to vehicle control, not statistically significant): 23.5%
reduction in percentage of viable tumor in the bone marrow (histology) (HL-60 human AML cells; 5 mg/kg BID×5, p<0.006 relative to vehicle control): 35%
number of viable cells [2]: significantly reduced
